# From US20080146540A1, “Methods of diagnosis and treatment for asthma, allergic rhinitis and other respiratory diseases based on haplotype association” (priority 2003, published 2008)
# What was measured:
# [1] = system: asthma patients; assay: Phase II clinical study CEP-1347-201: peak expiratory flow rate (PEFR; ANCOVA at week 8 and longitudinal model of daily PEFR); type: in vivo, human; conditions: for PEFR Change from Baseline at Week 8, LS Mean: ANCOVA; for Mean model predicted PEFR adjusted for baseline percent predicted PEFR, mean: morning PEFR
# Source text: Two analyses of PEFR were pre-specified in the SAP, an ANCOVA analysis of the change from baseline at week 8 and a model based longitudinal analysis of the daily PEFR measurements. Results from an ANCOVA (analysis of covariance) including treatment group as a factor and the baseline value as a covariate are presented in Table 19. The ANCOVA results reported in Table 19 were limited to change from baseline at week 8 PEFR measurements from office based spirometry assessments. Patients were also instructed to perform peak flow rate assessments at home, once in the morning and once in the evening using a hand-held peak flow device. PEFR measures were then recorded by the patient into a diary. A total of 6878 morning (5 am-12 noon) observations were collected from 149 patients during the treatment phase of the study (56 days in duration) corresponding to approximately 46.2 observations per subject. […] The endpoint used in this analysis was change from baseline in morning PEFR. While the model based analysis can be difficult to understand, this approach takes advantage of the rich daily PEFR data set (6878 observations) whereas the ANCOVA was limited to the week 8 PEFR (146 observations). The model included a placebo and treatment component. […] This common phenomenon is typically referred to as “regression to the mean”. In addition, the onset of this placebo effect appeared to occur over time. Therefore, a rate constant was added to the model to account for the change in placebo effect over time. […] Placeboss=θ(1)+η(1)+θ(9)*baseline % predicted PEFR (Eq. 3) Placebot=Placeboss*(1-exp(-θ(5)*DAY)) (Eq. 4) […] To allow for a less than immediate CEP-1347 effect, a rate constant controlling the onset of treatment effect was also included in the treatment model. In addition, it was assumed that the ability of a patient to responds to drug treatment was proportional to the patients baseline % predicted PEFR. In other words, patients with normal lung function at baseline would be expected to have little effect whereas those with poor lung function at baseline would be expected to have a larger effect. This model component is similar to a treatment by baseline interaction in an ANCOVA analysis. Equation describes the treatment time course model: […]=θ(n)*ROOM*(1-(-exp(-θ(10)*DAY)) (Eq. 5) Where, […] the treatment effect at time t adjusted for the patient's baseline % predicted PEFR and duration of drug therapy, θ(n) is the fixed effect associated with n treatment group; either 10, 25, or 50 mgBID treatment groups, ROOM scales the magnitude of the treatment effect based on the baseline % predicted PEFR (i.e., 1-baseline predicted; baseline by treatment interaction), θ(10) is the rate constant governing the onset of treatment effect. The overall effect at time t combines the placebo component and the drug component (Equation 6): […]=Placebot+Treatment1+ε(1) (Eq. 6) […] Model selection was done in the same manner as described for the MCT analysis. In addition, a randomization test was undertaken to more accurately determine the p value comparing the full model (run #14 included a treatment component) to the reduced model (run #5; placebo model only). […] The 5th and 95th percentiles for the predicted values were identified from the pool of predicted values to establish a 90% prediction interval around the mean model prediction (Table 21).
# [2] = system: exhaled nitric oxide (eNO); assay: Phase II clinical study CEP-1347-201: exhaled nitric oxide (eNO) change from baseline; type: in vivo, human; conditions: for eNO Change from Baseline at Week 8, LS Mean: ANCOVA
# Source text: eNO has been used as a biomarker for measuring airways inflammation. eNO correlates with eosinophilic inflammation in asthmatic patients and is increased in patients with untreated asthma and decreased with corticosteroid treatment.
# [3] = system: asthma patients; assay: Phase II clinical study CEP-1347-201: spirometry FEV/FVC; type: in vivo, human; conditions: patients with near normal lung function at baseline
# Source text: The overall mean baseline percent predicted FEV1 (forced expiratory […] in 1 second) and FEV1 values for the study were 96% and 2.9 liters, respectively.
# [4] = system: ICAM-1; assay: Phase II clinical study CEP-1347-201: additional biomarkers of inflammation; type: in vivo, human; conditions: prior to and 4 and 8 weeks after study drug administration; CEP-1347 vs placebo groups
# Experimental: (§1) Biomarkers of inflammation were measured prior to and 4 and 8 weeks after study drug administration.
# [5] = system: MCP-1; assay: as above; type: in vivo, human; conditions: prior to and 4 and 8 weeks after study drug administration; CEP-1347 vs placebo groups
# Experimental: as §1
# [6] = system: VCAM-1; assay: as above; type: in vivo, human; conditions: prior to and 4 and 8 weeks after study drug administration; CEP-1347 vs placebo groups
# Experimental: as §1
# [7] = system: VEGF; assay: as above; type: in vivo, human; conditions: prior to and 4 and 8 weeks after study drug administration; CEP-1347 vs placebo groups
# Experimental: as §1
# [8] = system: IL-8; assay: Phase II clinical study CEP-1347-201: sputum IL-8; type: in vivo, human; conditions: samples not collected in a systematic manner
# [9] = system: TNFα; conditions: standard in vitro pharmacological testing procedures (WO 97/49406); cited from earlier work
# [10] = system: TNFα; conditions: lipopolysaccharide challenge; cited from earlier work
smiles,measurement,setting,value
CCSCc1ccc2c(c1)c1c3c(c4c5cc(CSCC)ccc5n5c4c1n2C1CC(O)(C(=O)OC)C5(C)O1)CNC3=O (stereo not shown) [CEP-1347],"PEFR Change from Baseline at Week 8, LS Mean","[1]; 10 mg BID, p 0.30",0.01
same,"PEFR Change from Baseline at Week 8, LS Mean","[1]; 25 mg BID, p 1.0",0.03
same,"PEFR Change from Baseline at Week 8, LS Mean","[1]; 50 mg BID, p 0.77",0.04
same,"daily morning PEFR change from baseline, longitudinal mixed effects model with CEP-1347 treatment component vs placebo only model","[1]; 10, 25, 50 mg BID, 56 days, p=0.012",statistically significant improvement in the description of the data
same,"Mean model predicted PEFR adjusted for baseline percent predicted PEFR, mean","[1]; Dose 20, BL % pred PEF 70",19.3
same,"Mean model predicted PEFR adjusted for baseline percent predicted PEFR, mean","[1]; Dose 20, BL % pred PEF 80",16.6
same,"Mean model predicted PEFR adjusted for baseline percent predicted PEFR, mean","[1]; Dose 20, BL % pred PEF 96",12.2
same,"Mean model predicted PEFR adjusted for baseline percent predicted PEFR, mean","[1]; Dose 50, BL % pred PEF 70",38.6
same,"Mean model predicted PEFR adjusted for baseline percent predicted PEFR, mean","[1]; Dose 50, BL % pred PEF 80",29.4
same,"Mean model predicted PEFR adjusted for baseline percent predicted PEFR, mean","[1]; Dose 50, BL % pred PEF 96",14.8
same,"Mean model predicted PEFR adjusted for baseline percent predicted PEFR, mean","[1]; Dose 100, BL % pred PEF 70",99.5
same,"Mean model predicted PEFR adjusted for baseline percent predicted PEFR, mean","[1]; Dose 100, BL % pred PEF 80",70.0
same,"Mean model predicted PEFR adjusted for baseline percent predicted PEFR, mean","[1]; Dose 100, BL % pred PEF 96",22.9
same,"eNO Change from Baseline at Week 8, LS Mean","[2]; 10 mg BID, p 0.26",−4.86
same,"eNO Change from Baseline at Week 8, LS Mean","[2]; 25 mg BID, p 0.86",−1.88
same,"eNO Change from Baseline at Week 8, LS Mean","[2]; 50 mg BID, p 0.58",−3.08
same,eNO change from baseline at week 8 (ANCOVA),"[2]; all CEP-1347 treatment groups relative to placebo, none of the changes achieved statistical significance",greater decrease
same,FEV/FVC (ANCOVA),[3],no clear treatment related trends or statistically significant changes
same,concentration of ICAM-1,[4],No differences
same,concentration of MCP-1,[5],No differences
same,concentration of VCAM-1,[6],No differences
same,concentration of VEGF,[7],No differences
same,sputum IL-8 (ANCOVA),[8],no clear treatment related trends or statistically significant changes
same,production of TNFα by cultured cells,[9],inhibit the production
same,production of TNFα by mice after LPS challenge,[10],reduces production
